The test system of experiment [1] is H2087-TLISSLMPI (SEQ ID NO: 2) subcutaneous tumor. As to the kind of experiment: DC peptide vaccine in H2087-[…] subcutaneous tumor model. The experiment is classed as in vivo, NOD/SCID mice. To be noted: DC loaded with peptide, intracutaneous, 2 injections; vs DC loaded with wild-type peptide. The protocol:
600-900 ml of anticoagulated peripheral blood was collected from healthy volunteers for isolating peripheral blood mononuclear cells (PBMCs) via Ficoll. Cells were collected for use. 2×10^7 PBMCs per 0.5 ml was intraperitoneally injected into each of 300 NOD SCID mice without immune leakage to perform human immune reconstitution in NOD SCID mice. After 4 weeks, the mice were selected to be inoculated with the human lung cancer cell line.
The human non-small cell lung adenocarcinoma cell line H2087-[…] (SEQ ID NO: 2) as established in Example 7 was cultured in DMEM medium containing 10% fetal bovine serum, 100 U/mL penicillin and 100 U/mL streptomycin in an incubator at 37° C., 5% CO2. H2087-[…] […] The long diameter a and the short diameter b of the tumor were measured with a vernier caliper every 2-3 days and the size of the tumor was calculated as a*b*b/2. The mice and tumors were weighed and recorded every day. […] The tumor volume and the survival rate of mice were recorded every 2 days. […]
Tumor-bearing mice were randomly divided into 7 groups: DC loaded with wild-type peptide group, DC loaded with the mutant peptide […] […] After injection, vital signs of the mice were observed, and the vertical and horizontal dimensions of tumors were measured with a vernier caliper every two days. Tumor volume was calculated as follows: tumor volume=½×length×width^2. […]

Experiment [2] relates to T2 cells. As to the kind of experiment: LDH release assay, killing of peptide-loaded T2 target cells by CD8+ T cells. In kind it is cell-based, human. To be noted: for Killing efficiency: 4 h. The protocol:
The cells cultured in Example 3 were co-cultured with T2 cells loaded with the mutant peptides of the present invention or the wild-type peptide or without a peptide. A maximum release well, a volume correction well, a medium control well, a spontaneous release well and control wells for example at different effector-to-target ratios (ratios of T cells to T2 cells) were set in this experiment. Three replicate wells were set for each group. After 4 h, 50 μl of the co-culture supernatant was taken out and added to 50 μl of LDH substrate mixture to catalyze the reaction of LDH substrate. Finally, the plates were read at a wavelength of 490 nm, with a reference wavelength of 680 nm, and the killing activity against target cells T2 was calculated based on the control wells.
The formula for calculating the killing activity is: Killing efficiency (%)=(test well−spontaneous release of effector cells−spontaneous release of target cells+medium well)/(maximum release of target cells−volume correction well−spontaneous release of target cells+medium well)×100%
On the technique in general: LDH leaks from cells whose membrane has failed.

Experiment [3] concerns CD8+ T cells. Briefly: ELISPOTs detection of IFN-γ secretion by peptide-specific CD8+ T cells. In kind it is cell-based, human. As to conditions: ratio of spot numbers; >2 immunogenic.

Consider “TLISSLMPI [tumor antigen peptide from CACNA1H mutation, position 1428 arginine to methionine]”, for which, in experiment [1], the “Survival period of mice” value was “significantly prolonged survival period of mice”. Moreover, in experiment [1], the Tumor growth entry is “slowed down tumor growth in mice”. In addition, the Killing efficiency in experiment [2] (effector-to-target ratio 1:1, target T2 loaded with TLISSLMPI) was found to be 7.96%; in experiment [2] (effector-to-target ratio 1:1, target T2 loaded with wild-type TLISSLRPI), 2.23%; in experiment [2] (effector-to-target ratio 10:1, target T2 loaded with TLISSLMPI), 38.89%; in experiment [2] (effector-to-target ratio 10:1, target T2 loaded with wild-type TLISSLRPI), 4.23%. Moreover, the “Specific killing of target cells (in words)” value in experiment [2] (effector-to-target ratio of 1:1 or 1:10 as printed) was “capable of killing T2 cells presenting the mutant peptide, but not the T2 cells presenting a wild-type peptide”. Also, the “Fold (tested/wild-type)” value in experiment [3] was found to be 9.27.
